Legend:
MT4 = experiment: Compound was tested for effective concentration against MT-4 cell line; format: functional, cell-based; conditions: Homo sapiens
C8166 = experiment: Compound was tested for effective concentration against C8166 cell line; format: functional, cell-based; conditions: Homo sapiens
[1] = biological target: Human immunodeficiency virus type 1 protease (Human immunodeficiency virus 1, UniProt Q72874); experiment: In vitro inhibitory activity against HIV proteinase

SMILES	EC50 (MT4) [µM]	EC50 (C8166) [µM]	IC50 [1] [µM]
CC(C)(C)NC(=O)[C@@H]1C[C@@H]2CCCC[C@@H]2CN1C[C@@H](O)[C@H](Cc1ccccc1)NC(=O)[C@H](CC(N)=O)NC(=O)c1ccc2ccccc2n1	0.002	0.002	
CC(C)(C)NC(=O)[C@@H]1C[C@@H]2CCCC[C@@H]2CN1C[C@@H](O)CNC(=O)[C@@H]1N[C@@H](C(NC(=O)Cc2ccccc2)C(N)=O)SC1(C)C (stereo partly specified)	0.59	0.12	0.023
CC(C)(C)NC(=O)[C@@H]1C[C@@H](O)CN1CC(O)CNC(=O)[C@@H]1N[C@@H](C(NC(=O)Cc2ccccc2)C(=O)NCc2ccccc2)SC1(C)C (stereo partly specified)			5.1
CCCCCCCNC(=O)C(NC(=O)Cc1ccccc1)[C@@H]1N[C@@H](C(=O)NCC(O)CN2C[C@H]3CCCC[C@H]3C[C@H]2C(=O)NC(C)(C)C)C(C)(C)S1 (stereo partly specified)	> 100		0.086
CC(C)(C)NC(=O)C1N(C[C@@H](O)CNC(=O)[C@@H]2N[C@@H](C(NC(=O)Cc3ccccc3)C(=O)NCc3ccccc3)SC2(C)C)C(C)(C)SC1(C)C (stereo partly specified)			0.19
CC(C)(C)NC(=O)[C@@H]1C[C@@H]2CCCC[C@@H]2CN1C[C@@H](O)CNC(=O)[C@@H]1N[C@@H](C(NC(=O)Cc2ccccc2)C(=O)NCc2ccccc2)SC1(C)C (stereo partly specified)	0.35	0.05	0.023
CC(C)(C)NC(=O)[C@@H]1C[C@@H](OC(C)(C)C)CN1CC(O)CNC(=O)[C@@H]1N[C@@H](C(NC(=O)Cc2ccccc2)C(=O)NCc2ccccc2)SC1(C)C (stereo partly specified)			1.6
CC(C)(C)NC(=O)[C@H]1N(CC(O)CNC(=O)[C@@H]2N[C@@H]([C@H](NC(=O)Cc3ccccc3)C(=O)NCc3ccccc3)SC2(C)C)CSC1(C)C (stereo partly specified)			0.021
CC(C)(C)NC(=O)[C@@H]1CCCN1CC(O)CNC(=O)[C@@H]1N[C@@H](C(NC(=O)Cc2ccccc2)C(=O)NCc2ccccc2)SC1(C)C (stereo partly specified) [listing 1 of 2 here]			1.5
COC(=O)C(NC(=O)Cc1ccccc1)[C@@H]1N[C@@H](C(=O)NC[C@H](O)CN2C[C@H]3CCCC[C@H]3C[C@H]2C(=O)NC(C)(C)C)C(C)(C)S1 (stereo partly specified)	3.9		0.054
CC(C)(C)NC(=O)[C@@H]1CCCCN1C[C@H](O)CNC(=O)[C@@H]1N[C@@H](C(NC(=O)Cc2ccccc2)C(=O)NCc2ccccc2)SC1(C)C (stereo partly specified)			> 2.2
CC(C)(C)NC(=O)[C@@H]1C[C@H](OCc2ccccc2)CN1CC(O)CNC(=O)[C@@H]1N[C@@H](C(NC(=O)Cc2ccccc2)C(=O)NCc2ccccc2)SC1(C)C (stereo partly specified)			0.65
CC(C)(C)NC(=O)[C@@H]1C[C@@H]2CCCC[C@@H]2CN1C[C@H](O)CNC(=O)[C@@H]1N[C@@H](C(NC(=O)Cc2ccccc2)C(=O)NCC2CCCCC2)SC1(C)C (stereo partly specified)			0.3
CC(C)(C)NC(=O)[C@@H]1C[C@@H]2CCCC[C@@H]2CN1CC(O)CNC(=O)[C@@H]1N[C@@H](C(NC(=O)Cc2ccccc2)C(=O)NCCNC(=O)OC(C)(C)C)SC1(C)C (stereo partly specified)	0.052	0.1	0.16
CC(C)(C)NC(=O)[C@H]1CN(C(=O)Oc2ccccc2)CCN1C[C@@H](O)CNC(=O)[C@@H]1N[C@@H](C(NC(=O)Cc2ccccc2)C(=O)NCc2ccccc2)SC1(C)C (stereo partly specified)			0.082
CC(C)(C)NC(=O)[C@@H]1CCCN1CC(O)CNC(=O)[C@@H]1N[C@@H](C(NC(=O)Cc2ccccc2)C(=O)NCc2ccccc2)SC1(C)C (stereo partly specified) [listing 2 of 2 here]			3.1
CC(C)(C)NC(=O)[C@@H]1CN(C(=O)Oc2ccccc2)CCN1C[C@@H](O)CNC(=O)[C@@H]1N[C@@H](C(NC(=O)Cc2ccccc2)C(=O)NCc2ccccc2)SC1(C)C (stereo partly specified)			0.058
CC(C)(C)NC(=O)[C@@H]1CCCCN1C[C@@H](O)CNC(=O)[C@@H]1N[C@@H](C(NC(=O)Cc2ccccc2)C(=O)NCc2ccccc2)SC1(C)C (stereo partly specified)			6.5
CCNC(=O)C(NC(=O)Cc1ccccc1)[C@@H]1N[C@@H](C(=O)NCC(O)CN2C[C@H]3CCCC[C@H]3C[C@H]2C(=O)NC(C)(C)C)C(C)(C)S1 (stereo partly specified)	0.43	0.74	0.031
CC(C)(C)NC(=O)C1N(C[C@H](O)CNC(=O)[C@@H]2N[C@@H](C(NC(=O)Cc3ccccc3)C(=O)NCc3ccccc3)SC2(C)C)C(C)(C)SC1(C)C (stereo partly specified)			0.093
CC(C)(C)NC(=O)[C@@H]1CSCN1CC(O)CNC(=O)[C@@H]1N[C@@H](C(NC(=O)Cc2ccccc2)C(=O)NCc2ccccc2)SC1(C)C (stereo partly specified)			0.45
C[C@@H](C(=O)NC(C)(C)C)N(CC(O)CNC(=O)[C@@H]1N[C@@H](C(NC(=O)Cc2ccccc2)C(=O)NCc2ccccc2)SC1(C)C)CC1CCCCC1 (stereo partly specified)			6.4
CCO[C@@H]1C[C@@H](C(=O)NC(C)(C)C)N(C[C@@H](O)CNC(=O)[C@@H]2N[C@@H](C(NC(=O)Cc3ccccc3)C(=O)NCc3ccccc3)SC2(C)C)C1 (stereo partly specified)			> 35
CC(C)(C)NC(=O)[C@@H]1C[C@@H]2CCCC[C@@H]2CN1CC(O)CNC(=O)[C@@H]1N[C@@H](C(NC(=O)Cc2ccccc2)C(=O)NCCNC(=O)CCCC[C@@H]2SC[C@@H]3NC(=O)N[C@@H]32)SC1(C)C (stereo partly specified)	18		0.12
CCNC(=O)C(NC(=O)Cc1ccccc1)[C@@H]1N[C@@H](C(=O)NCC(O)CN(C)[C@@H](CC2CCCCC2)C(=O)NC(C)(C)C)C(C)(C)S1 (stereo partly specified)			0.71
CC(C)(C)NC(=O)[C@@H]1C[C@@H]2CCCC[C@@H]2CN1C[C@H](O)CNC(=O)[C@@H]1N[C@@H](C(NC(=O)Cc2ccccc2)C(=O)NCc2ccccc2)SC1(C)C (stereo partly specified)	13.6		0.16
CN(C)c1ccc(CNC(=O)C(NC(=O)Cc2ccccc2)[C@@H]2N[C@@H](C(=O)NC[C@H](O)CN3C[C@H]4CCCC[C@H]4C[C@H]3C(=O)NC(C)(C)C)C(C)(C)S2)cc1 (stereo partly specified)	0.52	0.27	0.026
CC1(C)S[C@H](C(NC(=O)Cc2ccccc2)C(=O)NCc2ccccc2)N[C@H]1C(=O)N[C@H](Cc1ccccc1)[C@H](O)CC(=O)NCc1ccccc1 (stereo partly specified)			4.6
CCNC(=O)C(NC(=O)Cc1ccccc1)[C@@H]1N[C@@H](C(=O)NCCNC(=O)[C@@H]2N[C@@H]([C@H](NC(=O)Cc3ccccc3)C(=O)NCC)SC2(C)C)C(C)(C)S1 (stereo partly specified)	5.4		0.005
CCO[C@@H]1C[C@@H](C(=O)NC(C)(C)C)N(C[C@H](O)CNC(=O)[C@@H]2N[C@@H](C(NC(=O)Cc3ccccc3)C(=O)NCc3ccccc3)SC2(C)C)C1 (stereo partly specified)			> 35

Source: ChEMBL document CHEMBL1127387, “Synthesis and structure-activity relationships of a series of penicillin-derived HIV proteinase inhibitors: heterocyclic ring systems containing P1' and P2' substituents” (J Med Chem, 1994)
